{"source": "the NIST ThermoML archive (doi:10.1007/s10765-013-1469-0)", "key": {"[1]": {"conditions": "101 kPa, Liquid; for viscosity: Concentric cylinders viscometry; for mass density: Vibrating tube method"}, "[2]": {"experiment": "refractive index (Na D-line) (dimensionless)", "conditions": "101.33 kPa, Liquid, Standard Abbe refractometry"}, "[3]": {"experiment": "refractive index (Na D-line) (dimensionless); xn = mol fraction of the nth substance listed", "conditions": "101 kPa, Liquid, Standard Abbe refractometry, x1 = 1"}, "[4]": {"experiment": "xn = mol fraction of the nth substance listed", "conditions": "101 kPa, Liquid, x1 = 1; for viscosity: Concentric cylinders viscometry; for mass density: Vibrating tube method"}}, "note": "± gives the expanded uncertainty stated by the source."}
{"smiles": "COCCOCCOCCOCCOC", "note": "[2,5,8,11,14-pentaoxapentadecane]", "values": [{"measurement": "viscosity", "setting": "[1]; 288.15 K", "value": "4.341 ± 0.04", "unit": "mPa·s"}, {"measurement": "mass density", "setting": "[1]; 288.15 K", "value": "1015.63 ± 0.1", "unit": "kg/m3"}, {"measurement": "viscosity", "setting": "[1]; 293.15 K", "value": "3.834 ± 0.035", "unit": "mPa·s"}, {"measurement": "mass density", "setting": "[1]; 293.15 K", "value": "1011 ± 0.1", "unit": "kg/m3"}, {"measurement": "viscosity", "setting": "[1]; 298.15 K", "value": "3.38 ± 0.031", "unit": "mPa·s"}, {"measurement": "mass density", "setting": "[1]; 298.15 K", "value": "1006.36 ± 0.1", "unit": "kg/m3"}, {"measurement": "viscosity", "setting": "[1]; 303.15 K", "value": "3.004 ± 0.028", "unit": "mPa·s"}, {"measurement": "mass density", "setting": "[1]; 303.15 K", "value": "1001.73 ± 0.098", "unit": "kg/m3"}, {"measurement": "viscosity", "setting": "[1]; 308.15 K", "value": "2.691 ± 0.025", "unit": "mPa·s"}, {"measurement": "mass density", "setting": "[1]; 308.15 K", "value": "997.104 ± 0.098", "unit": "kg/m3"}, {"measurement": "viscosity", "setting": "[1]; 313.15 K", "value": "2.426 ± 0.023", "unit": "mPa·s"}, {"measurement": "mass density", "setting": "[1]; 313.15 K", "value": "992.481 ± 0.099", "unit": "kg/m3"}, {"measurement": "viscosity", "setting": "[1]; 318.15 K", "value": "2.199 ± 0.021", "unit": "mPa·s"}, {"measurement": "mass density", "setting": "[1]; 318.15 K", "value": "987.859 ± 0.1", "unit": "kg/m3"}, {"measurement": "viscosity", "setting": "[1]; 323.15 K", "value": "2.006 ± 0.019", "unit": "mPa·s"}, {"measurement": "mass density", "setting": "[1]; 323.15 K", "value": "983.234 ± 0.1", "unit": "kg/m3"}, {"measurement": "viscosity", "setting": "[1]; 328.15 K", "value": "1.838 ± 0.018", "unit": "mPa·s"}, {"measurement": "mass density", "setting": "[1]; 328.15 K", "value": "978.613 ± 0.1", "unit": "kg/m3"}, {"measurement": "viscosity", "setting": "[1]; 333.15 K", "value": "1.691 ± 0.016", "unit": "mPa·s"}, {"measurement": "mass density", "setting": "[1]; 333.15 K", "value": "973.989 ± 0.1", "unit": "kg/m3"}, {"measurement": "refractive index", "setting": "[2]; 288.15 K", "value": "1.4345 ± 0.00033"}, {"measurement": "refractive index", "setting": "[2]; 293.15 K", "value": "1.43238 ± 0.00033"}, {"measurement": "refractive index", "setting": "[2]; 298.15 K", "value": "1.43027 ± 0.00033"}, {"measurement": "refractive index", "setting": "[2]; 303.15 K", "value": "1.42815 ± 0.00033"}, {"measurement": "refractive index", "setting": "[2]; 308.15 K", "value": "1.42603 ± 0.00033"}, {"measurement": "refractive index", "setting": "[2]; 313.15 K", "value": "1.42394 ± 0.00033"}, {"measurement": "refractive index", "setting": "[2]; 318.15 K", "value": "1.42183 ± 0.00033"}, {"measurement": "refractive index", "setting": "[2]; 323.15 K", "value": "1.41973 ± 0.00033"}, {"measurement": "refractive index", "setting": "[2]; 328.15 K", "value": "1.41765 ± 0.00033"}, {"measurement": "refractive index", "setting": "[2]; 333.15 K", "value": "1.41553 ± 0.00033"}]}
{"smiles": "CCCCO", "note": "[butan-1-ol]", "values": [{"measurement": "viscosity", "setting": "[1]; 288.15 K", "value": "3.356 ± 0.031", "unit": "mPa·s"}, {"measurement": "mass density", "setting": "[1]; 288.15 K", "value": "813.407 ± 0.14", "unit": "kg/m3"}, {"measurement": "viscosity", "setting": "[1]; 293.15 K", "value": "2.965 ± 0.028", "unit": "mPa·s"}, {"measurement": "mass density", "setting": "[1]; 293.15 K", "value": "809.621 ± 0.14", "unit": "kg/m3"}, {"measurement": "viscosity", "setting": "[1]; 298.15 K", "value": "2.593 ± 0.024", "unit": "mPa·s"}, {"measurement": "mass density", "setting": "[1]; 298.15 K", "value": "805.804 ± 0.15", "unit": "kg/m3"}, {"measurement": "viscosity", "setting": "[1]; 303.15 K", "value": "2.277 ± 0.022", "unit": "mPa·s"}, {"measurement": "mass density", "setting": "[1]; 303.15 K", "value": "801.964 ± 0.15", "unit": "kg/m3"}, {"measurement": "viscosity", "setting": "[1]; 308.15 K", "value": "2.008 ± 0.019", "unit": "mPa·s"}, {"measurement": "mass density", "setting": "[1]; 308.15 K", "value": "798.091 ± 0.15", "unit": "kg/m3"}, {"measurement": "viscosity", "setting": "[1]; 313.15 K", "value": "1.78 ± 0.017", "unit": "mPa·s"}, {"measurement": "mass density", "setting": "[1]; 313.15 K", "value": "794.181 ± 0.15", "unit": "kg/m3"}, {"measurement": "viscosity", "setting": "[1]; 318.15 K", "value": "1.583 ± 0.015", "unit": "mPa·s"}, {"measurement": "mass density", "setting": "[1]; 318.15 K", "value": "790.229 ± 0.15", "unit": "kg/m3"}, {"measurement": "viscosity", "setting": "[1]; 323.15 K", "value": "1.412 ± 0.014", "unit": "mPa·s"}, {"measurement": "mass density", "setting": "[1]; 323.15 K", "value": "786.228 ± 0.15", "unit": "kg/m3"}, {"measurement": "viscosity", "setting": "[1]; 328.15 K", "value": "1.264 ± 0.013", "unit": "mPa·s"}, {"measurement": "mass density", "setting": "[1]; 328.15 K", "value": "782.172 ± 0.15", "unit": "kg/m3"}, {"measurement": "viscosity", "setting": "[1]; 333.15 K", "value": "1.132 ± 0.012", "unit": "mPa·s"}, {"measurement": "mass density", "setting": "[1]; 333.15 K", "value": "778.056 ± 0.15", "unit": "kg/m3"}, {"measurement": "refractive index", "setting": "[2]; 288.15 K", "value": "1.40131 ± 0.00033"}, {"measurement": "refractive index", "setting": "[2]; 293.15 K", "value": "1.39932 ± 0.00033"}, {"measurement": "refractive index", "setting": "[2]; 298.15 K", "value": "1.39729 ± 0.00033"}, {"measurement": "refractive index", "setting": "[2]; 303.15 K", "value": "1.39529 ± 0.00033"}, {"measurement": "refractive index", "setting": "[2]; 308.15 K", "value": "1.39317 ± 0.00033"}, {"measurement": "refractive index", "setting": "[2]; 313.15 K", "value": "1.39104 ± 0.00033"}, {"measurement": "refractive index", "setting": "[2]; 318.15 K", "value": "1.38893 ± 0.00033"}, {"measurement": "refractive index", "setting": "[2]; 323.15 K", "value": "1.38683 ± 0.00033"}, {"measurement": "refractive index", "setting": "[2]; 328.15 K", "value": "1.38474 ± 0.00033"}, {"measurement": "refractive index", "setting": "[2]; 333.15 K", "value": "1.38237 ± 0.00033"}]}
{"smiles": "CCCCO", "note": "[butan-1-ol] + COCCOCCOCCOCCOC", "values": [{"measurement": "refractive index", "setting": "[3]; 288.15 K", "value": "1.40131 ± 0.00033"}, {"measurement": "refractive index", "setting": "[3]; 293.15 K", "value": "1.39932 ± 0.00033"}, {"measurement": "refractive index", "setting": "[3]; 298.15 K", "value": "1.39729 ± 0.00033"}, {"measurement": "refractive index", "setting": "[3]; 303.15 K", "value": "1.39529 ± 0.00033"}, {"measurement": "refractive index", "setting": "[3]; 308.15 K", "value": "1.39317 ± 0.00033"}, {"measurement": "refractive index", "setting": "[3]; 313.15 K", "value": "1.39104 ± 0.00033"}, {"measurement": "refractive index", "setting": "[3]; 318.15 K", "value": "1.38893 ± 0.00033"}, {"measurement": "refractive index", "setting": "[3]; 323.15 K", "value": "1.38683 ± 0.00033"}, {"measurement": "refractive index", "setting": "[3]; 328.15 K", "value": "1.38474 ± 0.00033"}, {"measurement": "refractive index", "setting": "[3]; 333.15 K", "value": "1.38237 ± 0.00033"}, {"measurement": "viscosity", "setting": "[4]; 288.15 K", "value": "3.356 ± 0.031", "unit": "mPa·s"}, {"measurement": "mass density", "setting": "[4]; 288.15 K", "value": "813.407 ± 0.14", "unit": "kg/m3"}, {"measurement": "viscosity", "setting": "[4]; 293.15 K", "value": "2.965 ± 0.028", "unit": "mPa·s"}, {"measurement": "mass density", "setting": "[4]; 293.15 K", "value": "809.621 ± 0.14", "unit": "kg/m3"}, {"measurement": "viscosity", "setting": "[4]; 298.15 K", "value": "2.593 ± 0.024", "unit": "mPa·s"}, {"measurement": "mass density", "setting": "[4]; 298.15 K", "value": "805.804 ± 0.15", "unit": "kg/m3"}, {"measurement": "viscosity", "setting": "[4]; 303.15 K", "value": "2.277 ± 0.022", "unit": "mPa·s"}, {"measurement": "mass density", "setting": "[4]; 303.15 K", "value": "801.964 ± 0.15", "unit": "kg/m3"}, {"measurement": "viscosity", "setting": "[4]; 308.15 K", "value": "2.008 ± 0.019", "unit": "mPa·s"}, {"measurement": "mass density", "setting": "[4]; 308.15 K", "value": "798.091 ± 0.15", "unit": "kg/m3"}, {"measurement": "viscosity", "setting": "[4]; 313.15 K", "value": "1.78 ± 0.017", "unit": "mPa·s"}, {"measurement": "mass density", "setting": "[4]; 313.15 K", "value": "794.181 ± 0.15", "unit": "kg/m3"}, {"measurement": "viscosity", "setting": "[4]; 318.15 K", "value": "1.583 ± 0.015", "unit": "mPa·s"}, {"measurement": "mass density", "setting": "[4]; 318.15 K", "value": "790.229 ± 0.15", "unit": "kg/m3"}, {"measurement": "viscosity", "setting": "[4]; 323.15 K", "value": "1.412 ± 0.014", "unit": "mPa·s"}, {"measurement": "mass density", "setting": "[4]; 323.15 K", "value": "786.228 ± 0.15", "unit": "kg/m3"}, {"measurement": "viscosity", "setting": "[4]; 328.15 K", "value": "1.264 ± 0.013", "unit": "mPa·s"}, {"measurement": "mass density", "setting": "[4]; 328.15 K", "value": "782.172 ± 0.15", "unit": "kg/m3"}, {"measurement": "viscosity", "setting": "[4]; 333.15 K", "value": "1.132 ± 0.012", "unit": "mPa·s"}, {"measurement": "mass density", "setting": "[4]; 333.15 K", "value": "778.056 ± 0.15", "unit": "kg/m3"}]}
